Experiment: Phase 1 study: safety and tolerability
Type: in vivo
Procedure: The maximum tolerated dose (MTD) of DZD1516 was defined based on safety data and the Bayesian optimal interval (BOIN) design (Additional file 1). The definition of DLT is provided in Additional file 1.
The AE grading was assessed according to the NCI-Common Terminology Criteria for Adverse Events (CTCAE) (version 5.0) and was monitored until 28 days after the last dose.
Eligible patients received single oral dosing of DZD1516 on Cycle 0 Day 1 (C0D1), followed by a 7-day washout. Twice daily oral dosing (bid) of DZD1516 was commenced from C1D1 in a continuous 21-day cycle until disease progression, unacceptable toxicity, or withdrawal of consent. All doses were taken under fed conditions (within 30 minutes after a meal).
Planned dosing consisted of 25, 50, 100, 200, 300, and 400 mg. Each dose escalation cohort will comprise a minimum of three and a maximum of six evaluable patients (except only one patient in the starting dose cohort). The maximum tolerated dose of DZD1516 was defined according to safety data and the Bayesian optimal interval (BOIN) design. Dose escalation/de-escalation rule with target toxicity rate for the MTD is 0.30 with interval of (0.20, 0.33).
DLTs were any adverse event (AE) not clearly attributable to the patient’s disease, including ≥ grade 4 hematological toxicities present for ≥ 4 days, grade 3 thrombocytopenia with bleeding, or grade 4 thrombocytopenia lasting for > 5 days, ≥ grade 3 non-hematological toxicities that is dose-limiting in the judgment of the investigators. Any other toxicity that is greater than that at baseline, is clinically significant or unacceptable, and is judged to be a DLT by the SRC. Exceptions included alopecia of any grade and isolated grade 3 laboratory change without clinical sequelae or clinical significance.
Safety evaluations were conducted at screening, on Day 1, 8, and 15 of Cycle 1, on Day 1 of each subsequent treatment cycle, at the end-of-treatment visit, and clinically indicated. Safety assessments included clinical laboratory measurements (hematology, chemistry, coagulation, and urinalysis), electrocardiogram (ECG), Echocardiogram/MUGA scan, ECOG performance status, vital signs, and physical examinations.

Compound: COc1cc(O[C@H]2CCN(C)CC2(F)F)c2c(Nc3ccc(Oc4ccn5ncnc5c4)c(C)c3)ncnc2c1 [DZD1516]
- Headache, ≥ Grade 3 (200 mg (N = 5)): 0 (0.0) n (%)
- Hemoglobin decreased, Any Grade (200 mg (N = 5)): 3 (60.0) n (%)
- Hemoglobin decreased, ≥ Grade 3 (200 mg (N = 5)): 0 (0.0) n (%)
- Investigations, Any Grade (200 mg (N = 5)): 4 (80.0) n (%)
- Investigations, ≥ Grade 3 (200 mg (N = 5)): 1 (20.0) n (%)
- Lipase increased, Any Grade (200 mg (N = 5)): 1 (20.0) n (%)
- Lipase increased, ≥ Grade 3 (200 mg (N = 5)): 0 (0.0) n (%)
- Malaise, Any Grade (200 mg (N = 5)): 1 (20.0) n (%)
- Malaise, ≥ Grade 3 (200 mg (N = 5)): 0 (0.0) n (%)
- Metabolism and nutrition disorders, Any Grade (200 mg (N = 5)): 3 (60.0) n (%)
- Metabolism and nutrition disorders, ≥ Grade 3 (200 mg (N = 5)): 0 (0.0) n (%)
- Musculoskeletal and connective tissue disorders, Any Grade (200 mg (N = 5)): 0 (0.0) n (%)
- Musculoskeletal and connective tissue disorders, ≥ Grade 3 (200 mg (N = 5)): 0 (0.0) n (%)
- Nausea, Any Grade (200 mg (N = 5)): 1 (20.0) n (%)
- Nausea, ≥ Grade 3 (200 mg (N = 5)): 0 (0.0) n (%)
- Nervous system disorders, Any Grade (200 mg (N = 5)): 2 (40.0) n (%)
- Nervous system disorders, ≥ Grade 3 (200 mg (N = 5)): 0 (0.0) n (%)
- Participants with any TEAE, Any Grade (200 mg (N = 5)): 5 (100.0) n (%)
- Participants with any TEAE, ≥ Grade 3 (200 mg (N = 5)): 1 (20.0) n (%)
- Platelet count decreased, Any Grade (200 mg (N = 5)): 1 (20.0) n (%)
- Platelet count decreased, ≥ Grade 3 (200 mg (N = 5)): 0 (0.0) n (%)
- Proteinuria, Any Grade (200 mg (N = 5)): 2 (40.0) n (%)
- Proteinuria, ≥ Grade 3 (200 mg (N = 5)): 0 (0.0) n (%)
- Renal and urinary disorders, Any Grade (200 mg (N = 5)): 2 (40.0) n (%)
- Renal and urinary disorders, ≥ Grade 3 (200 mg (N = 5)): 0 (0.0) n (%)
- Subjects with any TEAE (200 mg (N = 5)): 5 (100.0) n (%)
- Subjects with any drug-related TEAE (200 mg (N = 5)): 5 (100.0) n (%)
- Vomiting, Any Grade (200 mg (N = 5)): 3 (60.0) n (%)
- Vomiting, ≥ Grade 3 (200 mg (N = 5)): 0 (0.0) n (%)
- White blood cell count decreased, Any Grade (200 mg (N = 5)): 0 (0.0) n (%)
- White blood cell count decreased, ≥ Grade 3 (200 mg (N = 5)): 0 (0.0) n (%)
- Alanine aminotransferase increased, Any Grade (250 mg (N = 5)): 1 (20.0) n (%)
- Alanine aminotransferase increased, ≥ Grade 3 (250 mg (N = 5)): 0 (0.0) n (%)
- Anemia, Any Grade (250 mg (N = 5)): 1 (20.0) n (%)
- Anemia, ≥ Grade 3 (250 mg (N = 5)): 0 (0.0) n (%)
- Any TEAE: Grade 3 (250 mg (N = 5)): 1 (20.0) n (%)
- Any TEAE: Leading to death (250 mg (N = 5)): 0 (0.0) n (%)
- Any TEAE: Leading to dose reduction (250 mg (N = 5)): 0 (0.0) n (%)
- Any TEAE: Leading to treatment discontinuation (250 mg (N = 5)): 0 (0.0) n (%)
- Any TEAE: Leading to treatment interruption (250 mg (N = 5)): 1 (20.0) n (%)
- Any TEAE: SAE (250 mg (N = 5)): 1 (20.0) n (%)
- Aspartate aminotransferase increased, Any Grade (250 mg (N = 5)): 2 (40.0) n (%)
- Aspartate aminotransferase increased, ≥ Grade 3 (250 mg (N = 5)): 0 (0.0) n (%)
- Blood and lymphatic system disorders, Any Grade (250 mg (N = 5)): 1 (20.0) n (%)
- Blood and lymphatic system disorders, ≥ Grade 3 (250 mg (N = 5)): 0 (0.0) n (%)
- Blood bilirubin increased, Any Grade (250 mg (N = 5)): 1 (20.0) n (%)
- Blood bilirubin increased, ≥ Grade 3 (250 mg (N = 5)): 0 (0.0) n (%)
- Cardiac disorders, Any Grade (250 mg (N = 5)): 2 (40.0) n (%)
- Cardiac disorders, ≥ Grade 3 (250 mg (N = 5)): 0 (0.0) n (%)
- Constipation, Any Grade (250 mg (N = 5)): 0 (0.0) n (%)
- Constipation, ≥ Grade 3 (250 mg (N = 5)): 0 (0.0) n (%)
- Decreased appetite, Any Grade (250 mg (N = 5)): 0 (0.0) n (%)
- Decreased appetite, ≥ Grade 3 (250 mg (N = 5)): 0 (0.0) n (%)
- Dizziness, Any Grade (250 mg (N = 5)): 1 (20.0) n (%)
- Dizziness, ≥ Grade 3 (250 mg (N = 5)): 0 (0.0) n (%)
- Drug-related TEAE: Grade 3 (250 mg (N = 5)): 0 (0.0) n (%)
- Drug-related TEAE: Leading to death (250 mg (N = 5)): 0 (0.0) n (%)
- Drug-related TEAE: Leading to dose reduction (250 mg (N = 5)): 0 (0.0) n (%)
- Drug-related TEAE: Leading to treatment discontinuation (250 mg (N = 5)): 0 (0.0) n (%)
- Drug-related TEAE: Leading to treatment interruption (250 mg (N = 5)): 0 (0.0) n (%)
- Drug-related TEAE: SAE (250 mg (N = 5)): 0 (0.0) n (%)
- Fatigue, Any Grade (250 mg (N = 5)): 1 (20.0) n (%)
- Fatigue, ≥ Grade 3 (250 mg (N = 5)): 0 (0.0) n (%)
- Gastrointestinal disorders, Any Grade (250 mg (N = 5)): 1 (20.0) n (%)
- Gastrointestinal disorders, ≥ Grade 3 (250 mg (N = 5)): 1 (20.0) n (%)
- General disorders and administration site conditions, Any Grade (250 mg (N = 5)): 2 (40.0) n (%)
- General disorders and administration site conditions, ≥ Grade 3 (250 mg (N = 5)): 0 (0.0) n (%)
- Headache, Any Grade (250 mg (N = 5)): 2 (40.0) n (%)
- Headache, ≥ Grade 3 (250 mg (N = 5)): 0 (0.0) n (%)
- Hemoglobin decreased, Any Grade (250 mg (N = 5)): 2 (40.0) n (%)
- Hemoglobin decreased, ≥ Grade 3 (250 mg (N = 5)): 0 (0.0) n (%)
- Investigations, Any Grade (250 mg (N = 5)): 2 (40.0) n (%)
- Investigations, ≥ Grade 3 (250 mg (N = 5)): 0 (0.0) n (%)
- Lipase increased, Any Grade (250 mg (N = 5)): 0 (0.0) n (%)
- Lipase increased, ≥ Grade 3 (250 mg (N = 5)): 0 (0.0) n (%)
- Malaise, Any Grade (250 mg (N = 5)): 1 (20.0) n (%)
- Malaise, ≥ Grade 3 (250 mg (N = 5)): 0 (0.0) n (%)
- Metabolism and nutrition disorders, Any Grade (250 mg (N = 5)): 1 (20.0) n (%)
- Metabolism and nutrition disorders, ≥ Grade 3 (250 mg (N = 5)): 0 (0.0) n (%)
- Musculoskeletal and connective tissue disorders, Any Grade (250 mg (N = 5)): 3 (60.0) n (%)
- Musculoskeletal and connective tissue disorders, ≥ Grade 3 (250 mg (N = 5)): 1 (20.0) n (%)
- Nausea, Any Grade (250 mg (N = 5)): 1 (20.0) n (%)
- Nausea, ≥ Grade 3 (250 mg (N = 5)): 0 (0.0) n (%)
- Nervous system disorders, Any Grade (250 mg (N = 5)): 4 (80.0) n (%)
- Nervous system disorders, ≥ Grade 3 (250 mg (N = 5)): 0 (0.0) n (%)
- Participants with any TEAE, Any Grade (250 mg (N = 5)): 5 (100.0) n (%)
- Participants with any TEAE, ≥ Grade 3 (250 mg (N = 5)): 1 (20.0) n (%)
- Platelet count decreased, Any Grade (250 mg (N = 5)): 0 (0.0) n (%)
- Platelet count decreased, ≥ Grade 3 (250 mg (N = 5)): 0 (0.0) n (%)
- Proteinuria, Any Grade (250 mg (N = 5)): 0 (0.0) n (%)
- Proteinuria, ≥ Grade 3 (250 mg (N = 5)): 0 (0.0) n (%)
- Renal and urinary disorders, Any Grade (250 mg (N = 5)): 0 (0.0) n (%)
- Renal and urinary disorders, ≥ Grade 3 (250 mg (N = 5)): 0 (0.0) n (%)
- Subjects with any TEAE (250 mg (N = 5)): 5 (100.0) n (%)
- Subjects with any drug-related TEAE (250 mg (N = 5)): 4 (80.0) n (%)
- Vomiting, Any Grade (250 mg (N = 5)): 0 (0.0) n (%)
- Vomiting, ≥ Grade 3 (250 mg (N = 5)): 0 (0.0) n (%)
- White blood cell count decreased, Any Grade (250 mg (N = 5)): 2 (40.0) n (%)
- White blood cell count decreased, ≥ Grade 3 (250 mg (N = 5)): 0 (0.0) n (%)
- dose-limiting toxicities (DLTs) (250 mg cohort): none of the patients in the 250 mg cohort experiencing DLTs
- Alanine aminotransferase increased, Any Grade (300 mg (N = 4)): 1 (25.0) n (%)
- Alanine aminotransferase increased, ≥ Grade 3 (300 mg (N = 4)): 0 (0.0) n (%)
- Anemia, Any Grade (300 mg (N = 4)): 0 (0.0) n (%)
- Anemia, ≥ Grade 3 (300 mg (N = 4)): 0 (0.0) n (%)
- Any TEAE: Grade 3 (300 mg (N = 4)): 3 (75.0) n (%)
- Any TEAE: Leading to death (300 mg (N = 4)): 0 (0.0) n (%)
- Any TEAE: Leading to dose reduction (300 mg (N = 4)): 3 (75.0) n (%)
- Any TEAE: Leading to treatment discontinuation (300 mg (N = 4)): 1 (25.0) n (%)
- Any TEAE: Leading to treatment interruption (300 mg (N = 4)): 3 (75.0) n (%)
- Any TEAE: SAE (300 mg (N = 4)): 0 (0.0) n (%)
- Aspartate aminotransferase increased, Any Grade (300 mg (N = 4)): 1 (25.0) n (%)
- Aspartate aminotransferase increased, ≥ Grade 3 (300 mg (N = 4)): 0 (0.0) n (%)
- Blood and lymphatic system disorders, Any Grade (300 mg (N = 4)): 0 (0.0) n (%)
- Blood and lymphatic system disorders, ≥ Grade 3 (300 mg (N = 4)): 0 (0.0) n (%)
- Blood bilirubin increased, Any Grade (300 mg (N = 4)): 0 (0.0) n (%)
- Blood bilirubin increased, ≥ Grade 3 (300 mg (N = 4)): 0 (0.0) n (%)
- Cardiac disorders, Any Grade (300 mg (N = 4)): 0 (0.0) n (%)
- Cardiac disorders, ≥ Grade 3 (300 mg (N = 4)): 0 (0.0) n (%)
- Constipation, Any Grade (300 mg (N = 4)): 1 (25.0) n (%)
- Constipation, ≥ Grade 3 (300 mg (N = 4)): 0 (0.0) n (%)
- Decreased appetite, Any Grade (300 mg (N = 4)): 3 (75.0) n (%)
